From patent US6512007B1, “Use of galiella lactone” (Bayer Aktiengesellschaft, priority 2000, dated 2003) come the findings set out here.

The target of one assay is T1, activated Stat3 dimers (Homo sapiens, UniProt P40763).
T1 construct: Probe used: m67SIE, induction time 20 minutes: cell line: HepG2; endogenous in cells; host or cells: HepG2 (cell extract)
In words: Electrophoretic mobility shift assay: DNA binding of activated Stat3 dimers to m67SIE probe. The note with it: 16 ng/ml (82 nM), HepG2. An excerpt:
The DNA binding of activated Stat3 dimers to their binding sites in the promoters of the target genes is the basic requirement for transcriptional activation of these genes. At the same time, this step is specific for Stat3, i.e. inhibition of this step would result in specific inhibition of IL-6-induced and Stat3-mediated expression of the target genes without simultaneously affecting other signal cascades. The effect of the various compounds on the DNA binding ability of the phosphorylated and thus activated Stat3 dimers was analysed by carrying out electrophoretic mobility shift assays (EMSAs, gel shift assays).
The procedure was as described in Nature, 1993, 362: 79-83 and Mol. Cell Biol, 1998, 18: 2108-17. The DNA probe used was the ^32P-labelled, double-stranded oligonucleotide with the m67SIE recognition sequence (S2) (wild-type) (cf. EMBO J. 1995, 14: 1421-9)
It was possible to show with control mixtures in which the induced control was preincubated with phospho-Stat3 (tyrosine 705)-specific antibodies that it is Stat3 phosphorylated on the tyrosine 705 residue which binds to the m67SIE probe (see FIG. 6).
Effect of galiella lactone on the binding of activated Stat3 dimers to their DNA recognition sequence. Probe used: m67SIE, induction time 20 minutes: cell line: HepG2.

Another assay deals with DU 145. Description: Growth inhibition test (MTT), cytotoxic properties on tumour cell lines. In kind it is cell-based. To be noted: Homo sapiens, DU-145, 144 h; DU145, MTT, day 6; read-out: cytotoxic effect IC50. The protocol: (§1) The human colon cell lines SW 480 and HT 29 (ATCC Nos. CCL 228 and HBT-38), the mouse melanoma cell line B16F10 and the human prostate tumour cell lines LNCaP-FGC, PC-3 and DU 145 (ATCC No. CRL-10995, CRL-1435, HTB-81) were grown in RPMI 1640 medium with addition of 10% FCS in Roux dishes. This was followed by trypsinization and taking up in RPMI plus 10% FCS to a cell count of 50 000 cell/ml. 100 μl of cell suspension/well were put in a 96-microwell plate and incubated in a CO2 incubator at 37° C. for 1 day. A further 100 μl of RPMI medium and 1 μl of DMSO with galiella lactone were then added. The growth was monitored after day 6. For this purpose, 40 μl of MTT solution (3-(4,5-dimethylthiazol-2-yl)-2,5-diphenyltetrazolium bromide) with an initial concentration of 5 mg/ml of H2O were added to each microwell. Incubation took place in a CO2 incubator at 37° C. for 5 hours. The medium was then separated off, and 100 μl of i-propanol/well were added. After shaking with 100 μl of H2 O for 30 min, the extinction at 540 nm was measured with a Titertek Multiscan MCC/340 (flow).
(§2) The cytotoxic effect is indicated in the table as IC50 (galiella lactone concentration in μM) for the various tumour cell lines: […]

Another assay has as its system PC-3. The assay is described as above. In kind it is cell-based. To be noted: Homo sapiens, 144 h; PC-3, MTT, day 6; read-out: cytotoxic effect IC50. The protocol:
as §1, §2

The next assay concerns SW 480. The description is as above. Type of assay: cell-based. The note with it: Homo sapiens, 144 h; SW480, MTT, day 6; read-out: cytotoxic effect IC50. The protocol: as §1, §2
A further assay relates to LNCaP-FGC. The assay is described as above. In kind it is cell-based. To be noted: Homo sapiens, 144 h, day 6, read-out: cytotoxic effect IC50. The protocol: as §1, §2
The next assay has as its system HT 29. The assay is described as above. Type of assay: cell-based. The note with it: Homo sapiens, HT-29, 144 h; HAT29, MTT, day 6; read-out: cytotoxic effect IC50. The protocol: as §1, §2
The next assay concerns B16F10. The description is as above. In kind it is cell-based. To be noted: Mus musculus, B16-F10, 144 h, day 6, read-out: cytotoxic effect IC50. The protocol:
as §1, §2

Assay [1] relates to primary neurons of the rat cerebellum. In words: NMDA-mediated calcium influx into primary neurons after chronic IL-6 treatment. In kind it is cell-based. The procedure:
Cultures of primary neurons were obtained from the cerebella of rats 6 to 8 days old as described by B. Engelsen and R. Bjerkvig [in R. I. Freshney (Editor) Culture of Animal Cells, 2nd Edition, Alan R. Liss, Inc. New York 1987, 277-279]. After removal of the tissue, single cells were obtained using papain and were seeded out in a density of 200 00 cells per well in microtitre plates (96 wells) coated with poly-D-lysine. The cells were cultivated in a growth medium consisting of DMEM/F12, 10% heat-inactivated horse serum. 25 mM KCl, 30 mM glucose, 2 mM glutamine. In order to minimize the number of glial cells, 5-fluoro-2′-deoxyuridine (20 μg/ml) was added on the first and fourth day in culture. The cultures obtained in this way consisted of more than 95% neurons.
Human recombinant interluekin-6 (IL-6) was dissolved in physiological salt solution (Hank's balanced salt solution) and added to neuron cultures on days, 1, 4, 7 and 11 after the start of culturing (final) concentration 5 ng/ml). […]
12 days after the start of culturing, the N-methyl-D-asparate (NMDA)-induced changes in the intracellular calcium level were measured using a fluorescence plate reader (Ascent Fluoroscan). […] The cells were stimulated by adding NMDA (final concentration 200 μM) in the presence of glycine (final concentration 5 μM), and the fluroescence was measured at 15-second intervals over a period of one minute (excitation 485 nm. emission 530 nm). Intracellular calcium concentrations were calculated by the formula [Ca^2]i=Kd.
The arithmetic means was formed from the intracellular calcium concentrations found at all four times of measurement, and the percentage change from the unstimulated controls (basa) calcium concentration) was calculated.
Inhibition of the potentiation, induced chronic IL-6 administration, of the NMDA-mediated calcium influx into primary neurons of the rat cerebellum by galiella lactone. […] The average calcium concentration during the one-minute measurement period was calculated and expressed as a per cent of the basal intracellular calcium concentration. […]

pIC50: −log10 of the molar value.

T1 sequence (P40763 2-770 limits assumed): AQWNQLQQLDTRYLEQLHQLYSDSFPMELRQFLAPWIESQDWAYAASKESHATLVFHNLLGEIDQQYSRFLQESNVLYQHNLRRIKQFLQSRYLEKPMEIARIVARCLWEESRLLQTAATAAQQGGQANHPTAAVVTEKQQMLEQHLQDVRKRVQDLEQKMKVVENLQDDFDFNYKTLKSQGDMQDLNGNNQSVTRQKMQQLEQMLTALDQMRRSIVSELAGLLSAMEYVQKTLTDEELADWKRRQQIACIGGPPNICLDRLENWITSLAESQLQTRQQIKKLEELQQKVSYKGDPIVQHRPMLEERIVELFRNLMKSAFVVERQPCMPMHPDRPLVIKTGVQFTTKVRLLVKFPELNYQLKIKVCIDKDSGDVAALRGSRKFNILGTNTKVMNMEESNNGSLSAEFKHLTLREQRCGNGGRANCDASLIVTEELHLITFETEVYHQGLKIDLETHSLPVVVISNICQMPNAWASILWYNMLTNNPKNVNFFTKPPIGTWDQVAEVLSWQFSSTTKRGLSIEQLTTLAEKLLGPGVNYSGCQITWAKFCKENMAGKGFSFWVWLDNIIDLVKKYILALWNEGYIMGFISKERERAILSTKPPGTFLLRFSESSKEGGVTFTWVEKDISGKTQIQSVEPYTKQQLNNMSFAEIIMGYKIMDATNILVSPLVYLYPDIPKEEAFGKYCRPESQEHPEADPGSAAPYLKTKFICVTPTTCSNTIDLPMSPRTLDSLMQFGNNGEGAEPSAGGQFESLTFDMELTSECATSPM

The pIC50 is the negative decadic logarithm of the IC50, by convention in mol/L. On to `C[C@H]1C=C2C(=O)O[C@H]3CC[C@@H](C1)[C@@]23O` [galiella lactone], for which the “binding of the activated Stat3 dimers to their recognition sequence” value on activated Stat3 dimers is on record as “completely inhibits”. Further, the pIC50 is 5.35 in the assay on DU 145; 5.40 in the assay with PC-3; 5.30 in the assay on SW 480; 5.70 in the assay with LNCaP-FGC; 5.30 in the assay on HT 29; 5.52 with B16F10. Further, the “IL-6-induced enhancement of the NMDA-mediated calcium influx” value in assay [1] (1 μM before each IL-6 addition (5 ng/ml), NMDA 200 μM) was “completely prevented”. For the same compound, in assay [1] (chronic administration 1 μM, NMDA 200 μM, without IL-6), the “NMDA-induced increase in average intracellular calcium concentration” value is reported as “somewhat reduced”. The “effect on the basal calcium level” value in assay [1] (chronic treatment, 1 μM, no NMDA) is “no effect”.
